Source: patent US8809314B1, “Cephalosporin compound” (Cubist Pharmaceuticals, Inc., priority 2012, dated 2014)
≈ marks a conversion by molar mass, not a printed value.

Legend:
[1] = test system: Pseudomonas aeruginosa #44 (ATCC#27853); assay: Mouse septicemia (systemic infection), PD50; type: in vivo; details: Pa #44 (ATCC27853); CD-1 mice, IP inoculum, 2 SC doses at 1 and 6 hrs, 7 day survival
Method: (§1) In vivo efficacy of (I) was evaluated against strains of MRSA, and ceftazidime-resistant Pa and Klebsiella pneumonia (Kpn) in mouse septicemia, thigh and lung infections. Septicemia: CD-1 mice received lethal bacterial inocula IP, followed by 2 doses of antibiotics SC at 1 and 6 hrs post-inoculation. Dose calculated to protect 50% of the mice (PD50) was derived based on probit analysis of percentage survival. Thigh and lung infections: Thighs or lungs of neutropenic mice were inoculated with MRSA or Pa. Two treatment doses were given SC at 1 and 6 hrs post-inoculation. Tissues were harvested at ˜24 hrs post-inoculation and bacterial burdens quantified.
II. Methods • A. Animals: Six week-old, specific pathogen free, female CD-1 mice purchased from Charles River Laboratories (Wilmington, Mass.) were used for all studies after acclimation in Cubist animal facility. All animal procedures were approved by the Cubist Institutional Animal Care and Use Committee. • B. Bacteria and In Vitro Susceptibility Testing: MRSA #712, Pseudomonas aeruginosa #2245 and #2545, and Klebsiella pneumoniae #573 are clinical isolates; Pseudomonas aeruginosa #44 is an ATCC strain (ATCC#27853). MIC was determined in MHB by standard CLSI microdilution. […] The survival of animals was recorded daily for 7 days. The antibiotic dose calculated to protect 50% of the mice (PD50) was derived based on probit analysis of percentage survival. • E. Mouse Thigh and Lung Infections: Mice were rendered neutropenic by two IP injections of cyclophosphamide 4 days (150 mg/kg) and 1 day (100 mg/kg) before bacterial inoculation. […] Tissue bacterial burdens were quantified by serial dilution and spiral plating of homogenates.
III. […] The dose that protected 50% of the mice (PD50) was calculated by probit analysis based on percentage of mice surviving for 7 days post-inoculation. • C. […]

[2] = test system: ceftazidime-resistant Pseudomonas aeruginosa #2545; assay: Lung infection in neutropenic mice; type: in vivo; details: Pa #2545 lung infection, neutropenic mice
Method: as §1
(§2) II. Methods • A. Animals: Six week-old, specific pathogen free, female CD-1 mice purchased from Charles River Laboratories (Wilmington, Mass.) were used for all studies after acclimation in Cubist animal facility. All animal procedures were approved by the Cubist Institutional Animal Care and Use Committee. • B. Bacteria and In Vitro Susceptibility Testing: MRSA #712, Pseudomonas aeruginosa #2245 and #2545, and Klebsiella pneumoniae #573 are clinical isolates; Pseudomonas aeruginosa #44 is an ATCC strain (ATCC#27853). MIC was determined in MHB by standard CLSI microdilution. Comparator Antibiotics Used in Animal Studies: Vancomycin hydrochloride USP was purchased from Hospira (Lake Forest, Ill.); ceftazidime hydrate from Sigma; Primaxin (imipenem and cilastatin) from Merck; ceftaroline was synthesized at a CRO. • D. Mouse Septicemia: Mice received lethal inocula of bacteria in 6% hog gastric mucin intraperitoneally (IP), followed by two treatment doses of antibiotics via subcutaneous (SC) administration at 1 and 6 hrs post-inoculation. The survival of animals was recorded daily for 7 days. The antibiotic dose calculated to protect 50% of the mice (PD50) was derived based on probit analysis of percentage survival. • E. Mouse Thigh and Lung Infections: Mice were rendered neutropenic by two IP injections of cyclophosphamide 4 days (150 mg/kg) and 1 day (100 mg/kg) before bacterial inoculation. Thigh or lung infection was induced by an intramuscular injection of 0.2 mL or intranasal inoculation of 0.1 mL inoculum preparation from an overnight bacterial culture into left thigh or nares. Tissues from one group of mice receiving no treatment (No Rx) were harvested at 1 hr for determination of baseline of bacterial burden. The remaining mice received two treatment doses of vehicles or antibiotics given SC at 1 and 6 hrs post-inoculation. Tissues from the treated mice were harvested at ˜24 hrs post-inoculation. Tissue bacterial burdens were quantified by serial dilution and spiral plating of homogenates.

[3] = test system: ceftazidime-susceptible Pseudomonas aeruginosa #2245; assay: Lung infection in neutropenic mice; type: in vivo; details: Pa #2245 lung infection, 3-log CFU reduction vs vehicle at 24 h
Method: as §1, §2

[4] = test system: ceftazidime-susceptible Pseudomonas aeruginosa #44 (ATCC#27853); assay: Lung infection in neutropenic mice; type: in vivo; details: Pa #44 lung infection
Method: as §1, §2

Pa2086 (mucoid strain) = assay: MIC, broth microdilution (Example 5), Table 3; type: cell-based; details: Pseudomonas aeruginosa
Method: (§3) II. […] MIC90 values were defined as the concentration required to inhibit growth of 90% of the strains tested. • C. SAR was performed using the following isolates: Sa399 (ATCC43300, MRSA), Sa1721 (NARSA NRS384, MRSA USA 300), Pa44 (ATCC27853), and 4 clinical isolates (Pa2241, Pa2086 (mucoid strain), Pa2694 and Pa2698). • D. The in vitro antibacterial activity of the compound of formula (I) was further evaluated in an expanded MRSA and Pa MIC panel (see Table 4 and FIG. 6).

Pa2241 = assay: MIC, broth microdilution (Example 5), Table 3; type: cell-based; details: Pseudomonas aeruginosa
Method: as §3

Pa2694 = assay: MIC, broth microdilution (Example 5), Table 3; type: cell-based; details: Pseudomonas aeruginosa
Method: as §3

Pa2698 = assay: MIC, broth microdilution (Example 5), Table 3; type: cell-based; details: Pseudomonas aeruginosa
Method: as §3

Pa44 (ATCC27853) = assay: MIC, broth microdilution (Example 5), Table 3; type: cell-based; details: Pseudomonas aeruginosa
Method: as §3

[5] = test system: Sa1721 (NARSA NRS384, MRSA USA 300); assay: MIC, broth microdilution (Example 5), Table 3; type: cell-based; details: Staphylococcus aureus
Method: as §3

Sa399 (ATCC43300, MRSA) = assay: MIC, broth microdilution (Example 5), Table 3; type: cell-based; details: Staphylococcus aureus
Method: as §3

MRSA (n = 21) = assay: MIC90, expanded MIC panel (Table 4); type: cell-based; details: Staphylococcus aureus; 21 MRSA strains; read-out: MIC90 MRSA (n = 21)
Method: as §3

[6] = test system: Pseudomonas aeruginosa (n = 100); assay: MIC90, expanded MIC panel (Table 4); type: cell-based; details: 100 Pa strains
Method: as §3

[7] = 2 SC doses at 1 and 6 hrs, 24 h, vs vehicle
[8] = 3-log CFU reduction vs vehicle at 24 h

Compound: CO/N=C(\C(=O)N[C@@H]1C(=O)N2C(C(=O)[O-])=C(C[n+]3ccc(N)c(NC(=O)Nc4ccc(CCNC(=N)N)cc4)c3)CS[C@H]12)c1nc(N)sc1Cl [(I)]
- Septicemia PD50 (± SE) [1]: 5.3 ± 0.7 mg/kg
- Lung (L) ED−2log [2, 7]: 6.7 (L) mg/kg
- ED−3 log [2, 8]: 11.4 mg/kg
- ED−3 log [3]: 5.2 mg/kg
- Lung (L) ED−2log [4, 7]: 1.8 (L) mg/kg
- ED−3 log [4, 8]: 4.1 mg/kg
- MIC (Pa2086 (mucoid strain)): 8 µg/mL (≈ 10.8 µM)
- MIC (Pa2241): 1 µg/mL (≈ 1.35 µM)
- MIC (Pa2694): 8 µg/mL (≈ 10.8 µM)
- MIC (Pa2698): 8 µg/mL (≈ 10.8 µM)
- MIC (Pa44 (ATCC27853)): 2 µg/mL (≈ 2.69 µM)
- MIC [5]: 8 µg/mL (≈ 10.8 µM)
- MIC (Sa399 (ATCC43300, MRSA)): 2 µg/mL (≈ 2.69 µM)
- MIC90 (MRSA (n = 21)): 2 µg/mL (≈ 2.69 µM)
- MIC90 [6]: 8 µg/mL (≈ 10.8 µM)
